Tests used:
[1] = molecular target: T1, potassium ion channel hERG (Homo sapiens, UniProt Q12809); test: Assay 5 hERG assay (patch clamp, CHO cells over-expressing hERG); type: cell-based; conditions: SyncroPatch 384PE, room temperature, geometric mean, read-out: Assay 5 (hERG Hu CHO if EPh CR-Syncro) GMean IC50
T1 construct: expressed in transfected cells; host or cells: Chinese hamster ovary K1 (CHO)
In short: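 hERG currents recorded by automated patch clamp at room temperature in CHO-K1 cells, 6-point cumulative concentrations. SyncroPatch runs used KF-based internal (pH 7.2) and NMDG-containing external solution (pH 7.4), 0.33% DMSO; QPatchII runs used 2% or 0.4% DMSO. Only wells meeting seal-resistance and current-size criteria kept.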

[2] = molecular target: GSK3β (Glycogen synthase kinase-3 beta) (Homo sapiens, UniProt P49841); test: Assay 6 GSK3β assay (ThermoFisher Z-Lyte FRET); type: biochemical; conditions: ATP Conc: 10 μM, geometric mean; read-out: Assay 6 (GSK3β FRET-Z-Lyte Cr) GMean IC50
In short: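 Z-Lyte FRET: 0.22-0.92 ng kinase with 2 μM Ser/Thr 09 peptide in HEPES pH 7.5, MgCl2, EGTA, 60 min at room temperature, then 60 min development. Compounds in 1% DMSO, 10-point 3-fold series from 10 μM; sigmoidal dose-response fit.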

Chain of GSK3β (Glycogen synthase kinase-3 beta) (P49841 whole entry): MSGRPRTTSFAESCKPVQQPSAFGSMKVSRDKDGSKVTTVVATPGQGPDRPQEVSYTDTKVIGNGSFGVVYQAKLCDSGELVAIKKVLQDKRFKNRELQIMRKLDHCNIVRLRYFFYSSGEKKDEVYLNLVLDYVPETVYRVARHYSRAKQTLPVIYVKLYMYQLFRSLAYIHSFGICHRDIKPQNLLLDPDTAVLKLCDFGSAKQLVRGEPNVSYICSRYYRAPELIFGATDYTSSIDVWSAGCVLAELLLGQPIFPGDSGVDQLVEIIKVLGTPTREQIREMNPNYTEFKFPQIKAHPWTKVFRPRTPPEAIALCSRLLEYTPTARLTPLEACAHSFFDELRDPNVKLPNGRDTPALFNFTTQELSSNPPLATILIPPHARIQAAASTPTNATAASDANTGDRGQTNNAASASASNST
T1 sequence (Q12809 whole entry): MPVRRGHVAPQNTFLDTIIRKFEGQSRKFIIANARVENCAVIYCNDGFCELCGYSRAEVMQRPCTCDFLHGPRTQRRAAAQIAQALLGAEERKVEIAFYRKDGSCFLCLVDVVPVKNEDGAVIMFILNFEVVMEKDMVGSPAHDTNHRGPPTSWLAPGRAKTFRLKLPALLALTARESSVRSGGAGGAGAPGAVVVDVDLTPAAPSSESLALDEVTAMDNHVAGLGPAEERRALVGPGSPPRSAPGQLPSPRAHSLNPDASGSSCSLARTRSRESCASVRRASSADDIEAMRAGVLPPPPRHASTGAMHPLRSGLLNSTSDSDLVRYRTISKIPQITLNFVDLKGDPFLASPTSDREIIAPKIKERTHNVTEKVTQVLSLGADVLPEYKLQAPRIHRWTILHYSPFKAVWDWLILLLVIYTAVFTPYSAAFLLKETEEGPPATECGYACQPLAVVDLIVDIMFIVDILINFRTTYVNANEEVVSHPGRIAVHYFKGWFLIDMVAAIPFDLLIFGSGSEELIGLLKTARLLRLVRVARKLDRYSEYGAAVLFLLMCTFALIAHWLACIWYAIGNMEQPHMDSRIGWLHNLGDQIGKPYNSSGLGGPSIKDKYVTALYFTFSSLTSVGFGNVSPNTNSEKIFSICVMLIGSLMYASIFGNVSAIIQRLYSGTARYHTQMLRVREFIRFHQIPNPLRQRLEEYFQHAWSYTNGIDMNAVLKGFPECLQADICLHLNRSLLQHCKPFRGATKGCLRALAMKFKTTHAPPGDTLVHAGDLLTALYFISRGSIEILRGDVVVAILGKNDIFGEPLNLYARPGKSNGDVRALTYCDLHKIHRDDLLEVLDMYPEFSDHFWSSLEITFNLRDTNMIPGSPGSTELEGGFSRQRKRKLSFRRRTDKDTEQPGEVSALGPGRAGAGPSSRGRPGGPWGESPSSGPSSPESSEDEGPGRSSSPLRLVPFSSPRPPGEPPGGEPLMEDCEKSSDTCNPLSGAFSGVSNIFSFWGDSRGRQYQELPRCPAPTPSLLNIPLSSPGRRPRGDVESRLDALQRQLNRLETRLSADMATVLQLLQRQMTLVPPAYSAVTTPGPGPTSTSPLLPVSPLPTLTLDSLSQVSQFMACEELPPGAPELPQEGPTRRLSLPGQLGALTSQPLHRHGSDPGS

With Cc1cnc(N[C@H]2CC[C@H](Nc3ccc(-n4cc(Cl)ccc4=O)cn3)C2)nn1 [Example 134, 5-Chloro-6′-(((1S,3S)-3-((6-methyl-1,2,4-triazin-3-yl)amino)cyclopentyl)amino)-2H-[1,3′-bipyridin]-2-one] the IC50 [1] was greater than 40 µM and the IC50 [2] was 0.439 µM.
Cn1c(=O)n(-c2ccc(N[C@H]3CC[C@H](Nc4ncc(C5CC5)nn4)C3)nc2)c2ccc(C#N)cc21 [Example 117, 1-(6-(((1S,3S)-3-((6-Cyclopropyl-1,2,4-triazin-3-yl)amino)cyclopentyl)amino)pyridin-3-yl)-3-methyl-2-oxo-2,3-dihydro-1H-benzo[d]imidazole-5-carbonitrile] was tested, and the IC50 [1] was 6.3 µM and the IC50 [2] was greater than 10 µM.
Compound Cc1cnc(N[C@H]2CC[C@H](Nc3ccc(-n4cccc(C(F)(F)F)c4=O)cn3)C2)nn1 [Example 135, 6′-(((1S,3S)-3-((6-Methyl-1,2,4-triazin-3-yl)amino)cyclopentyl)amino)-3-(trifluoromethyl)-2H-[1,3′-bipyridin]-2-one] has an IC50 [1] greater than 40 µM and an IC50 [2] greater than 10 µM.
For O=C(NC1COC1)c1cnc(N[C@H]2CC[C@H](Nc3ccc(-n4ccccc4=O)cn3)C2)nn1 [Example 70, N-(Oxetan-3-yl)-3-(((1S,3S)-3-((2-oxo-2H-[1,3′-bipyridin]-6′-yl)amino)cyclopentyl)amino)-1,2,4-triazine-6-carboxamide], the IC50 [1] was greater than 40 µM and the IC50 [2] was greater than 10 µM.
O=c1c(OC(F)(F)F)cccn1-c1ccc(N[C@H]2CC[C@H](Nc3ncc(C4CC4)nn3)C2)nc1 [Example 52, 6′-(((1S,3S)-3-((6-Cyclopropyl-1,2,4-triazin-3-yl)amino)cyclopentyl)amino)-3-(trifluoromethoxy)-2H-[1,3′-bipyridin]-2-one] showed an IC50 [1] of 39.9 µM and an IC50 [2] greater than 10 µM.
Work on COc1ccc(=O)n(-c2ccc(N[C@H]3CC[C@H](Nc4ncc(C5CC5)nn4)C3)nc2)c1 [Example 65, 6′-(((1S,3S)-3-((6-Cyclopropyl-1,2,4-triazin-3-yl)amino)cyclopentyl)amino)-5-methoxy-2H-[1,3′-bipyridin]-2-one] yielded an IC50 [1] of 38.8 µM and an IC50 [2] of 0.014 µM.
Work on Cc1cnc(N[C@H]2CC[C@H](Nc3ccc(-n4c(=O)n(C)c5cccnc54)cn3)C2)nn1 [Example 212, 1-Methyl-3-(6-(((1S,3S)-3-((6-methyl-1,2,4-triazin-3-yl)amino)cyclopentyl)amino)pyridin-3-yl)-1,3-dihydro-2H-imidazo[4,5-b]pyridin-2-one] yielded an IC50 [1] greater than 40.1 µM and an IC50 [2] greater than 10 µM.
O=c1c(C(F)(F)F)cccn1-c1ccc(N[C@H]2CC[C@H](Nc3ncc(C4CC4)nn3)C2)nc1 [Example 51, 6′-(((1S,3S)-3-((6-Cyclopropyl-1,2,4-triazin-3-yl)amino)cyclopentyl)amino)-3-(trifluoromethyl)-2H-[1,3′-bipyridin]-2-one] showed an IC50 [1] of 10.8 µM and an IC50 [2] greater than 10 µM.
Cc1cnc(N[C@H]2CC[C@H](Nc3ccc(-n4cc(C#N)ccc4=O)cn3)C2)nn1 [Example 128, 6′-(((1S,3S)-3-((6-Methyl-1,2,4-triazin-3-yl)amino)cyclopentyl)amino)-2-oxo-2H-[1,3′-bipyridine]-5-carbonitrile] was tested, and the IC50 [1] was greater than 40 µM and the IC50 [2] was greater than 10 µM.
In the case of COc1cccn(-c2ccc(N[C@H]3CC[C@H](Nc4ncc(C5CC5)nn4)C3)nc2)c1=O [Example 64, 6′-(((1S,3S)-3-((6-Cyclopropyl-1,2,4-triazin-3-yl)amino)cyclopentyl)amino)-3-methoxy-2H-[1,3′-bipyridin]-2-one], the IC50 [1] is reported as greater than 40 µM and the IC50 [2] is reported as 0.385 µM.
For Cn1c(=O)n(-c2ccc(N[C@H]3CC[C@H](Nc4ncc(C5CC5)nn4)C3)nc2)c2ncccc21 [Example 63, 3-(6-(((1S,3S)-3-((6-Cyclopropyl-1,2,4-triazin-3-yl)amino)cyclopentyl)amino)pyridin-3-yl)-1-methyl-1,3-dihydro-2H-imidazo[4,5-b]pyridin-2-one], the IC50 [1] was greater than 40 µM and the IC50 [2] was greater than 10 µM.
For Cc1cnc(N[C@H]2CC[C@H](Nc3ccc(-n4ccccc4=O)cn3)C2)nn1 [Example 67, 6′-(((1S,3S)-3-((6-Methyl-1,2,4-triazin-3-yl)amino)cyclopentyl)amino)-2H-[1,3′-bipyridin]-2-one], the IC50 [1] was greater than 40 µM and the IC50 [2] was 2.1 µM.
Cc1cnc(N[C@H]2CC[C@H](Nc3ccc(-n4c(=O)ccc5cccnc54)cn3)C2)nn1 [Example 197, 1-(6-(((1S,3S)-3-((6-Methyl-1,2,4-triazin-3-yl)amino)cyclopentyl)amino)pyridin-3-yl)-1,8-naphthyridin-2(1H)-one] showed an IC50 [1] greater than 40.1 µM and an IC50 [2] greater than 10 µM.
In the case of Cc1cnc(N[C@H]2CC[C@H](Nc3ccc(-n4cccc(OC(F)F)c4=O)cn3)C2)nn1 [Example 187, 3-(Difluoromethoxy)-6′-(((1S,3S)-3-((6-methyl-1,2,4-triazin-3-yl)amino)cyclopentyl)amino)-2H-[1,3′-bipyridin]-2-one], the IC50 [1] is reported as greater than 40.1 µM and the IC50 [2] is reported as 3.78 µM.
COc1ccc(=O)n(-c2ccc(N[C@H]3CC[C@H](Nc4ncc(C)nn4)C3)nc2)c1 [Example 133, 5-Methoxy-6′-(((1S,3S)-3-((6-methyl-1,2,4-triazin-3-yl)amino)cyclopentyl)amino)-2H-[1,3′-bipyridin]-2-one] was tested, and the IC50 [1] was greater than 40 µM and the IC50 [2] was 0.032 µM.
CN1CC(=O)N(c2ccc(N[C@H]3CC[C@H](Nc4ncc(C5CC5)nn4)C3)nc2)C1=O [Example 57, 3-(6-(((1S,3S)-3-((6-Cyclopropyl-1,2,4-triazin-3-yl)amino)cyclopentyl)amino)pyridin-3-yl)-1-methylimidazolidine-2,4-dione] was tested, and the IC50 [1] was greater than 40 µM and the IC50 [2] was greater than 10 µM.
Cc1cnc(N[C@H]2CC[C@H](Nc3ccc(-n4cccc(-c5cnn(C)c5)c4=O)cn3)C2)nn1 [Example 198, 6′-(((1S,3S)-3-((6-Methyl-1,2,4-triazin-3-yl)amino)cyclopentyl)amino)-3-(1-methyl-1H-pyrazol-4-yl)-2H-[1,3′-bipyridin]-2-one] showed an IC50 [1] greater than 40.1 µM and an IC50 [2] greater than 10 µM.
Compound N#Cc1cccn(-c2ccc(N[C@H]3CC[C@H](Nc4ncc(C5CC5)nn4)C3)nc2)c1=O [Example 58, 6′-(((1S,3S)-3-((6-Cyclopropyl-1,2,4-triazin-3-yl)amino)cyclopentyl)amino)-2-oxo-2H-[1,3′-bipyridine]-3-carbonitrile] has an IC50 [1] greater than 40 µM and an IC50 [2] greater than 10 µM.
Compound Cc1cnc(N[C@H]2CC[C@H](Nc3ccc(-n4nccc(Cl)c4=O)cn3)C2)nn1 [Example 221, 4-Chloro-2-(6-(((1S,3S)-3-((6-methyl-1,2,4-triazin-3-yl)amino)cyclopentyl)amino)pyridin-3-yl)pyridazin-3(2H)-one] has an IC50 [1] greater than 40.1 µM and an IC50 [2] greater than 10 µM.
Work on O=c1c(Cl)cccn1-c1ccc(N[C@H]2CC[C@H](Nc3ncc(C4CC4)nn3)C2)nc1 [Example 55, 3-Chloro-6′-(((1S,3S)-3-((6-cyclopropyl-1,2,4-triazin-3-yl)amino)cyclopentyl)amino)-2H-[1,3′-bipyridin]-2-one] yielded an IC50 [1] of 30.3 µM and an IC50 [2] of 1.6 µM.
With C#CCNC(=O)c1cnc(N[C@H]2CC[C@H](Nc3ccc(-n4ccccc4=O)cn3)C2)nn1 [Example 69, 3-(((1S,3S)-3-((2-Oxo-2H-[1,3′-bipyridin]-6′-yl)amino)cyclopentyl)amino)-N-(prop-2-yn-1-yl)-1,2,4-triazine-6-carboxamide] the IC50 [1] was greater than 40 µM and the IC50 [2] was greater than 10 µM.
For Cc1cnc(N[C@H]2CC[C@H](Nc3ccc(-n4cccc(Cl)c4=O)cn3)C2)nn1 [Example 129, 3-Chloro-6′-(((1S,3S)-3-((6-methyl-1,2,4-triazin-3-yl)amino)cyclopentyl)amino)-2H-[1,3′-bipyridin]-2-one], the IC50 [1] was greater than 40 µM and the IC50 [2] was 4.85 µM.
In the case of Cn1c(=O)n(-c2ccc(N[C@H]3CC[C@H](Nc4ncc(C5CC5)nn4)C3)nc2)c2ccc(C(=O)O)cc21 [Example 121, 1-(6-(((1S,3S)-3-((6-Cyclopropyl-1,2,4-triazin-3-yl)amino)cyclopentyl)amino)pyridin-3-yl)-3-methyl-2-oxo-2,3-dihydro-1H-benzo[d]imidazole-5-carboxylic acid], the IC50 [1] is reported as greater than 40 µM and the IC50 [2] is reported as 5.05 µM.
With Cc1cccn(-c2ccc(N[C@H]3CC[C@H](Nc4ncc(C5CC5)nn4)C3)nc2)c1=O [Example 66, 6′-(((1S,3S)-3-((6-Cyclopropyl-1,2,4-triazin-3-yl)amino)cyclopentyl)amino)-3-methyl-2H-[1,3′-bipyridin]-2-one] the IC50 [1] was greater than 40 µM and the IC50 [2] was greater than 10 µM.
Compound CNC(=O)c1cnc(N[C@H]2CC[C@H](Nc3ccc(-n4ccccc4=O)cn3)C2)nn1 [Example 75, N-Methyl-3-(((1S,3S)-3-((2-oxo-2H-[1,3′-bipyridin]-6′-yl)amino)cyclopentyl)amino)-1,2,4-triazine-6-carboxamide] has an IC50 [1] greater than 40 µM and an IC50 [2] greater than 10 µM.
Compound COc1cccn(-c2ccc(N[C@H]3CC[C@H](Nc4ncc(C)nn4)C3)nc2)c1=O [Example 132, 3-Methoxy-6′-(((1S,3S)-3-((6-methyl-1,2,4-triazin-3-yl)amino)cyclopentyl)amino)-2H-[1,3′-bipyridin]-2-one] has an IC50 [1] greater than 40 µM and an IC50 [2] of 2.06 µM.
For O=c1cccnn1-c1ccc(N[C@H]2CC[C@H](Nc3ncc(C4CC4)nn3)C2)nc1 [Example 118], the IC50 [1] was greater than 40 µM and the IC50 [2] was greater than 10 µM.
For CN1C(=O)CN(c2ccc(N[C@H]3CC[C@H](Nc4ncc(C5CC5)nn4)C3)nc2)C1=O [Example 62, 1-(6-(((1S,3S)-3-((6-Cyclopropyl-1,2,4-triazin-3-yl)amino)cyclopentyl)amino)pyridin-3-yl)-3-methylimidazolidine-2,4-dione], the IC50 [1] was 36.3 µM and the IC50 [2] was greater than 10 µM.
